**Q.** For `O=C(O)CCc1cn(Cc2ccc(OCc3csc(-c4ccccc4)n3)nc2)nc1-c1ccccc1` [Example 300, 3-[3-phenyl-1-[6-(2-phenyl-4-thiazolylmethoxy)-3-pyridylmethyl]-1H-pyrazol-4-yl]propionic acid], which melting point is on record?
**A.** 107 to 108 °C

**Q.** For `O=C(O)CCc1cn(Cc2ccc(OCc3csc(-c4ccccc4)n3)cc2)nc1-c1ccccc1` [Example 304, 3-[3-phenyl-1-[4-(2-phenyl-4-thiazolylmethoxy)benzyl]-1H-pyrazol-4-yl]propionic acid], which melting point is on record?
**A.** 132 to 133 °C

**Q.** Which melting point does the source give for `CCOc1nn(Cc2ccc(OCc3ccc(-c4ccccc4)nc3)cc2)cc1CCC(=O)O` [Example 230, 3-[3-ethoxy-1-[4-(6-phenyl-3-pyridylmethoxy)benzyl]-1H-pyrazol-4-yl]propionic acid] here?
**A.** 140 to 141 °C

**Q.** With `Cc1oc(-c2ccccc2)nc1COc1ccc(Cn2cc(CCCCC(=O)O)c(-c3ccccc3)n2)cc1` [Example 97, 5-[1-[4-(5-methyl-2-phenyl-4-oxazolylmethoxy)benzyl]-3-phenyl-1H-pyrazol-4-yl]pentanoic acid] as the compound, how does the melting point read?
**A.** 109 to 110 °C

**Q.** Which melting point does the source give for `CCOC(=O)/C=C/c1cn(Cc2ccc(Oc3ccccc3)cc2)nc1OCc1nc(-c2ccccc2)oc1C` [Example 332, ethyl(E)-3-[3-(5-methyl-2-phenyl-4-oxazolylmethoxy)-1-(4-phenoxybenzyl)-1H-pyrazol-4-yl]propenoate] here?
**A.** 93 to 94 °C

**Q.** Which melting point does the source give for `Cc1ncccc1COc1ccc2cc(Cn3cc(CCC(=O)O)c(-c4ccccc4)c3)ccc2c1` [Example 60, 3-[1-[6-(2-methyl-3-pyridylmethoxy)-2-naphthylmethyl]-4-phenyl-3-pyrrolyl]propionic acid] here?
**A.** 163 to 164 °C

**Q.** With `CCOc1nn(Cc2ccnc(OCc3cn4c(-c5ccccc5)cccc4n3)c2)cc1CCC(=O)O` [Example 238, 3-[3-ethoxy-1-[2-(5-phenylimidazo[1,2-a]pyridin-2-ylmethoxy)-4-pyridylmethyl]-1H-pyrazol-4-yl]propionic acid] as the compound, how does the melting point read?
**A.** 177 to 178 °C

**Q.** With `O=C(O)CCc1cn(Cc2ccc(OCc3ccncc3)cc2)cc1-c1ccccc1` [Example 13, 3-[4-phenyl-1-[4-(4-pyridylmethoxy)benzyl]-3-pyrrolyl]propionic acid] as the compound, how does the melting point read?
**A.** 124 to 125 °C

**Q.** Which melting point does the source give for `O=C(O)CCc1cn(Cc2ccc(OCc3csc(-c4cccnc4)n3)cc2)cc1-c1ccccc1` [Example 46, 3-[4-phenyl-1-[4-[2-(3-pyridyl)-4-thiazolylmethoxy]benzyl]-3-pyrrolyl]propionic acid] here?
**A.** 118 to 119 °C

**Q.** With `CCOc1cc(Cn2cc(CCC(=O)O)c(-c3ccccc3)c2)cc(OCc2csc(-c3cnccn3)n2)c1` [Example 73, 3-[1-[3-ethoxy-5-[2-(2-pyrazinyl)-4-thiazolylmethoxy]benzyl]-4-phenyl-3-pyrrolyl]propionic acid] as the compound, how does the melting point read?
**A.** 97 to 98 °C

**Q.** Which melting point does the source give for `COc1cc(COc2nn(Cc3ccc(Oc4ccccc4)cc3)cc2C(N)=O)ccc1OCc1nc(-c2ccco2)oc1C` [Example 323, 3-[4-[2-(2-furyl)-5-methyl-4-oxazolylmethoxy]-3-methoxybenzyloxy]-1-(4-phenoxybenzyl)-1H-pyrazole-4-carbamide] here?
**A.** 105 to 106 °C

**Q.** Which melting point does the source give for `CCOC(=O)CCc1cn(Cc2ccc(OC)c(OCc3nc(-c4ccccc4)oc3C)c2)nc1OCC` [Example 214, ethyl 3-[3-ethoxy-1-[4-methoxy-3-(5-methyl-2-phenyl-4-oxazolylmethoxy)benzyl]-1H-pyrazol-4-yl]propionate] here?
**A.** 109 to 110 °C

**Q.** For `CCOc1nn(Cc2ccc(OCc3ccc(-c4ccccc4)cn3)cc2)cc1CCC(=O)O` [Example 250, 3-[3-ethoxy-1-[4-(5-phenyl-2-pyridylmethoxy)benzyl]-1H-pyrazol-4-yl]propionic acid], which melting point is on record?
**A.** 127 to 128 °C

**Q.** For `O=C(O)CCc1cn(Cc2ccc(OCc3cccc(-c4cnccn4)c3)cc2)cc1-c1ccccc1` [Example 36, 3-[4-phenyl-1-[4-[3-(2-pyrazinyl)benzyloxy]benzyl]-3-pyrrolyl]propionic acid], which melting point is on record?
**A.** 91 to 92 °C

**Q.** With `O=C(O)Cc1cn(Cc2ccc(OCc3ccccc3)cc2)nc1-c1ccc(F)cc1` [Example 317, [1-(4-benzyloxybenzyl)-3-(4-fluorophenyl)-1H-pyrazol-4-yl]acetic acid] as the compound, how does the melting point read?
**A.** 194 to 195 °C

**Q.** With `CCOc1nn(Cc2ccc(OCc3ccc4ccccc4n3)nc2)cc1CCC(=O)O` [Example 252, 3-[3-ethoxy-1-[6-(2-quinolylmethoxy)-3-pyridylmethyl]-1H-pyrazol-4-yl]propionic acid] as the compound, how does the melting point read?
**A.** 133 to 134 °C

**Q.** Which melting point does the source give for `O=C(O)CCc1cn(Cc2ccc(OCc3ccccn3)cc2)cc1-c1ccccc1` [Example 11, 3-[4-phenyl-1-[4-(2-pyridylmethoxy)benzyl]-3-pyrrolyl]propionic acid] here?
**A.** 109 to 110 °C

**Q.** Which melting point does the source give for `O=C(O)CCc1cn(Cc2ccc(OCc3ccsc3)cc2)cc1-c1ccccc1` [Example 22, 3-[4-phenyl-1-[4-(3-thienylmethoxy)benzyl]-3-pyrrolyl]propionic acid] here?
**A.** 118 to 119 °C

**Q.** For `CCOc1nn(Cc2ccnc(OCc3cn4c(Cl)cccc4n3)c2)cc1CCC(=O)O` [Example 236, 3-[1-[2-(5-chloroimidazo[1,2-a]pyridin-2-ylmethoxy)-4-pyridylmethyl]-3-ethoxy-1H-pyrazol-4-yl]propionic acid], which melting point is on record?
**A.** 160 to 161 °C

**Q.** Which melting point does the source give for `O=C(O)CCc1cn(Cc2cc(OCc3csc(-c4ccccc4)n3)cc(OCc3csc(-c4ccccc4)n3)c2)cc1-c1ccccc1` [Example 266, 3-[1-[3,5-bis(2-phenyl-4-thiazolylmethoxy)benzyl]-4-phenyl-3-pyrrolyl]propionic acid] here?
**A.** 78 to 79 °C

**Q.** Which melting point does the source give for `Cc1sc(-c2ccccc2)nc1COc1ccc(Cn2cc(CC(=O)O)c(-c3ccccc3)n2)cn1` [Example 312, [1-[6-(5-methyl-2-phenyl-4-thiazolylmethoxy)-3-pyridylmethyl]-3-phenyl-1H-pyrazol-4-yl]acetic acid] here?
**A.** 140 to 141 °C

**Q.** Which melting point does the source give for `Cc1oc(-c2ccccc2)nc1COc1nn(Cc2ccc(Oc3ccccc3)cc2)cc1CCC(=O)O` [Example 335, 3-[3-(5-methyl-2-phenyl-4-oxazolylmethoxy)-1-(4-phenoxybenzyl)-1H-pyrazol-4-yl]propionic acid] here?
**A.** 120 to 121 °C

**Q.** Which melting point does the source give for `Cc1oc(-c2ccccc2)nc1COc1nn(Cc2ccc(Oc3ccccc3)cc2)cc1C(N)=O` [Example 331, 3-(5-methyl-2-phenyl-4-oxazolylmethoxy)-1-(4-phenoxybenzyl)-1H-pyrazole-4-carbamide] here?
**A.** 158 to 159 °C

**Q.** Which melting point does the source give for `CN(CCOc1ccc(Cn2cc(CCC(=O)O)c(-c3ccccc3)c2)cc1)c1ccccn1` [Example 49, 3-[1-[4-[2-[N-methyl-N-(2-pyridyl)amino]ethoxy]benzyl]-4-phenyl-3-pyrrolyl]propionic acid] here?
**A.** 110 to 111 °C

**Q.** With `O=C(O)c1cn(Cc2cccc(Oc3ccccc3)c2)nc1-c1ccccc1` [Example 50, 1-(3-phenoxybenzyl)-3-phenyl-1H-pyrazole-4-carboxylic acid] as the compound, how does the melting point read?
**A.** 148 to 149 °C

**Q.** With `CCOc1nn(Cc2ccc(OCc3nc4ccccc4n3C)cc2)cc1CCC(=O)O` [Example 248, 3-[3-ethoxy-1-[4-(1-methyl-1H-benzimidazol-2-ylmethoxy)benzyl]-1H-pyrazol-4-yl]propionic acid] as the compound, how does the melting point read?
**A.** 177 to 178 °C

**Q.** With `Cc1oc(-c2ccccc2)nc1COc1nn(Cc2ccc(Oc3ccccc3)cc2)cc1C(=O)O` [Example 330, 3-(5-methyl-2-phenyl-4-oxazolylmethoxy)-1-(4-phenoxybenzyl)-1H-pyrazole-4-carboxylic acid] as the compound, how does the melting point read?
**A.** 222 to 223 °C

**Q.** Which melting point does the source give for `CCOc1nn(Cc2ccc(OCc3nc(-c4ccco4)oc3C)nc2)cc1CC(=O)O` [Example 264, 3-ethoxy-1-[6-[2-(2-furyl)-5-methyl-4-oxazolylmethoxy]-3-pyridylmethyl]-1H-pyrazol-4-ylacetic acid] here?
**A.** 155 to 156 °C

**Q.** Which melting point does the source give for `Cc1oc(-c2ccccc2)nc1COc1ccc(Cn2cc(C(=O)O)c(C(C)C)n2)cc1` [Example 106, 3-isopropyl-1-[4-(5-methyl-2-phenyl-4-oxazolylmethoxy)benzyl]-1H-pyrazol-4-carboxylic acid] here?
**A.** 194 to 195 °C

**Q.** With `CCOc1nn(Cc2ccc(OCc3nc(-c4ccccc4)oc3C)cn2)cc1CCC(=O)O` [Example 258, 3-[3-ethoxy-1-[5-(5-methyl-2-phenyl-4-oxazolylmethoxy)-2-pyridylmethyl]-1H-pyrazol-4-yl]propionic acid] as the compound, how does the melting point read?
**A.** 133 to 134 °C

**Q.** Which melting point does the source give for `Cc1nc(COc2ccc(Cn3cc(CCC(=O)O)c(-c4ccccc4)c3)cc2)cs1` [Example 42, 3-[1-[4-(2-methyl-4-thiazolylmethoxy]benzyl]-4-phenyl-3-pyrrolyl]propionic acid] here?
**A.** 113 to 114 °C

**Q.** Which melting point does the source give for `CCOc1cc(Cn2cc(CCC(=O)O)c(-c3ccccc3)c2)cc(OCc2csc(-c3cccs3)n2)c1` [Example 276, 3-[1-[3-ethoxy-5-[2-(2-thienyl)-4-thiazolylmethoxy)benzyl]-4-phenyl-3-pyrrolyl]propionic acid] here?
**A.** 104 to 105 °C

**Q.** For `O=C(O)CCc1cn(Cc2ccc(OCc3cncc(-c4ccccc4)c3)cc2)nc1-c1ccccc1` [Example 290, 3-[3-phenyl-1-[4-(5-phenyl-3-pyridylmethoxy)benzyl]-1H-pyrazol-4-yl]propionic acid], which melting point is on record?
**A.** 161 to 162 °C

**Q.** For `Cc1oc(-c2ccccc2)nc1COc1ccc(Cn2cc(CCC(=O)O)cn2)cc1` [Example 142, 3-[1-[4-(5-methyl-2-phenyl-4-oxazolylmethoxy)benzyl]-1H-pyrazol-4-yl]propionic acid], which melting point is on record?
**A.** 124 to 125 °C

**Q.** With `CCOC(=O)c1cn(Cc2ccc(Oc3ccccc3)cc2)nc1OCc1nc(-c2ccccc2)oc1C` [Example 329, ethyl 3-(5-methyl-2-phenyl-4-oxazolylmethoxy)-1-(4-phenoxybenzyl)-1H-pyrazole-4-carboxylate] as the compound, how does the melting point read?
**A.** 96 to 97 °C

**Q.** With `O=C(O)c1cn(Cc2ccc(OCc3csc(-c4ccccc4)n3)cc2)nc1-c1ccccc1` [Example 94, 3-phenyl-1-[4-(2-phenyl-4-thiazolylmethoxy)benzyl]-1H-pyrazol-4-carboxylic acid] as the compound, how does the melting point read?
**A.** 119 to 120 °C

**Q.** With `Cc1oc(-c2ccccc2)nc1COc1ccc(Cn2cc(C(=O)O)c(-c3ccccc3)n2)cc1` [Example 93, 1-[4-(5-methyl-2 phenyl-4-oxazolylmethoxy)benzyl]-3-phenyl-1H-pyrazol-4-carboxylic acid] as the compound, how does the melting point read?
**A.** 165 to 166 °C
